Data taken from patent publication US20250051375A1, “ANTI-HIV COMPOUNDS” (Gilead Sciences, Inc., priority 2023, published 2025).
Converted amounts (≈) assume the structure as drawn. Read-outs that look alike come from different tables or passages of the source.

How the values were obtained:
HIV-1 IIIB strain = test: MT-4 HIV Wild Type Virus Infection Assay (IIIB Virus); assay type: cell-based; conditions: Human immunodeficiency virus 1, IIIB, MT4, 120 h, MT-4 cells acutely infected with HIV-1 IIIB, 5 day incubation, Cell-titer glo
Method in brief: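 MT-4 cells at 2×10^6 cells/ml in RPMI/10% FBS were acutely infected with HIV-1 IIIB for 1 h at 37° C, diluted 25× and added to serially diluted compounds. After 5 days at 37° C, viability read by CellTiter-Glo luminescence; EC50 from dose-response curves.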

[1] = target: bovine intestinal alkaline phosphatase (Bos taurus (Bovine), UniProt P19111); test: BiALP: conversion by bovine intestinal alkaline phosphatase; assay type: in vitro ADME; conditions: 2 μM substrate, 100 ng/mL iALP, Tris pH 7.8, 37° C., 60 minutes; for [Intermediate A] or [Amprenavir]: parent formed
Method in brief: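 LC-MS (positive mode) quantified analyte/internal-standard peak area ratios, referenced to 2 μM parent product. This followed a 60 min, 37° C reaction of 2 μM substrate in Tris buffer pH 7.8 (1 mM MgCl2, 1 mM ZnCl2) containing 100 ng/mL iALP or buffer alone, run in triplicate.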

[2] = Intestinal S9 Assay (human GI S9); assay type: in vitro ADME; conditions: 1.0 mg/mL S9 protein; for half-life at 2 μM: human, TRIS pH 7.4, read-out: Human GI S9 T½
Method: (§1) Reagents. Stock solutions of test compounds in dimethyl sulfoxide (DMSO) having a final concentration of 10 mM were prepared and used in all experiments. Sekisui XenoTech (Kansas City, KS) provided pooled intestinal S9 fractions. All other chemicals were purchased from Sigma-Aldrich (St. Louis, MO) or VWR (West Chester, PA). Internal Standard/Quench (IS/Q) used to stop reactions was 100 nM labetalol in (by volume) formic acid (1%) and acetonitrile (99%).
(§2) Intestinal S9 Assay: For each test compound, an aliquot of the test compound was added to S9 stock diluted with TRIS buffer (100 mM TRIS, 1 mM ZnCl2, 1 mM MgCl2), pH 7.4, to obtain an incubation protein concentration of 1.0 mg/mL. The incubation was initiated by the addition of the substrate to the S9 reaction mixture to a final concentration of 2 μM. At 0, 10, 20, 30, 60 and 120 min, 25 μL aliquots of the reaction mixture were transferred to plates containing 225 μl of IS/Q solution. After quenching, the plates were centrifuged at 3000×g for 30 minutes. 150 μL aliquots of each supernatant were transferred to new plates and 150 μL water was added. Aliquots (10 μL) of the prepared samples were analyzed on a Thermo Q-Exactive mass spectrometer as described below.
(§3) Liquid Chromatography-Mass Spectrometry: Quantification of test compounds and control substrate was performed by analyte/internal standard peak area ratio (PAR) values measured on a Thermo Q-Exactive mass spectrometer coupled to a Dionex UltiMate 3000 HPLC with a Leap Technologies HTC PAL autosampler. The column used for analysis was a Thermo Scientific Hypersil GOLD (1.9 μm particle size, 50×2.1 mm). Mobile phase A consisted of 0.1% (v/v) formic acid in water. Mobile phase B consisted of 0.1% (v/v) formic acid in acetonitrile. Elution of analytes was achieved by a series of linear gradients varying the proportions of A and B. The mass spectrometer was calibrated on a weekly basis and mass tolerance of 5 ppm was used.
(§4) Data Analysis. Metabolic stabilities were determined by measuring the rates of disappearance of test compound and positive control substrate. Data (% of substrate remaining) were plotted on a semi-log scale and fitted using an exponential decline model:
(§5) where • Ct% of substrate remaining at time=t • C0% of substrate remaining at time=0 • t time • T½ half-life • The Half-life (T½) is determined by the following equation:
(§6) [formula] • Assuming a first-order reaction, the slope (k) is extrapolated from the aforementioned plotted data.

Solubility in FaSSIF = conditions: 23 °C, pH 6.5, fassif, thermodynamic from solid
Method in brief: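 Concentration measured by HPLC-UV after solid compound was dosed at 5 mg/mL into pH 6.5 fasted-state simulated intestinal fluid containing taurocholate and lecithin (4:1 molar) and vortexed.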

[3] = Intestinal S9 Assay (dog GI S9); assay type: in vitro ADME; conditions: 1.0 mg/mL S9 protein; for half-life at 2 μM: dog, TRIS pH 7.4, read-out: Dog GI S9 T½; for Dog GI S9 [Intermediate A] / Dog GI S9 [Intermediate A] %: 2 μM, TRIS pH 7.4
Method: as §1, §2, §3, §4, §5, §6

PBS Stability Assay = assay type: physicochemical; conditions: buffer, pH 7.4, 2 μM, phosphate buffered saline pH 7.4; read-out: PBS T½
Method in brief: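 Half-life derives from first-order exponential decline of % compound remaining, quantified by LC-MS analyte/internal-standard peak-area ratio. Compound (2 μM final) sat in pH 7.4 phosphate-buffered saline, with aliquots quenched into acidified acetonitrile containing labetalol from 0 to 120 min.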

Chain of bovine intestinal alkaline phosphatase (P19111 20-506): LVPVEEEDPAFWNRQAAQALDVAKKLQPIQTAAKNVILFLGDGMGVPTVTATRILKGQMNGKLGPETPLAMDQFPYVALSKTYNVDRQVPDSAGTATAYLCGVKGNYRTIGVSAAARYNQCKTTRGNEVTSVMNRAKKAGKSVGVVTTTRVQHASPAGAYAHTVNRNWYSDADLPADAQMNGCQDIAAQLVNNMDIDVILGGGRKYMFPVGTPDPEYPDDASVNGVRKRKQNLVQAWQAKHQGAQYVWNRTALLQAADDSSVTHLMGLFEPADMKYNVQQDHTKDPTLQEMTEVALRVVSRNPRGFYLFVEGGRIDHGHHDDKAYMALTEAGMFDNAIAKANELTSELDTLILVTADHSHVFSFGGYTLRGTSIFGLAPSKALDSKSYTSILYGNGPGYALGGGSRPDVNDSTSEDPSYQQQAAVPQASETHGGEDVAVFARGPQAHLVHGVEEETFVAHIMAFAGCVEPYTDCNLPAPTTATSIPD

Row | Structure (SMILES) | EC50 (HIV-1 IIIB strain) | [Compound] [1] | half-life at 2 μM [2] | solubility at 2 h (Solubility in FaSSIF) | half-life at 2 μM [3] | biALP Intermediate A or [Amprenavir] (% of total) [1] | [Intermediate A] or [Amprenavir] [1] | Human GI S9 [Intermediate A] ([2]; 2 μM, TRIS pH 7.4) | Human GI S9 [Intermediate A] % ([2]; 2 μM, TRIS pH 7.4) | Dog GI S9 [Intermediate A] [3] | Dog GI S9 [Intermediate A] % [3] | Human GI S9 T½ ([2]; 2 μM, TRIS pH 7.4) | EC50 (HIV-1 IIIB strain; read-out: EC50) | solubility (Solubility in FaSSIF; FaSSIF (pH 6.5) solubility, FaSSIF pH 6.5, dose 5 mg/mL, 2-hour incubation, ambient temperature) | half-life at 2 μM (PBS Stability Assay)
1 | COC(=O)N[C@H](C(=O)N[C@@H](Cc1ccc(C#Cc2cnc(N3CC4CCC(C3)N4C3COC3)nc2)cc1)[C@H](CN(Cc1c(F)cc(-c2ccn(C(F)F)n2)cc1F)NC(=O)[C@@H](NC(=O)OC)C(C)(C)C(F)(F)F)OC(=O)CC(C)(C)c1c(CC(=O)N2CCC(C(=O)O)CC2C(=O)O)cc(C)cc1OP(=O)(O)O)C(C)(C)C(F)(F)F (stereo partly drawn) [Example 113] | 341 nM | 1948 nM | 6.56 h | 4140 µg/mL (≈ 2530 µM) | 3.38 h |  |  |  |  |  |  |  |  |  | 
2 | COC(=O)N[C@H](C(=O)N[C@@H](Cc1ccc(C#Cc2cnc(N3CC4CCC(C3)N4C3COC3)nc2)cc1)[C@H](CN(Cc1c(F)cc(-c2ccn(C(F)F)n2)cc1F)NC(=O)[C@@H](NC(=O)OC)C(C)(C)C(F)(F)F)OC(=O)CC(C)(C)c1c(CC(=O)N2C[C@H](O)C[C@H]2C(=O)O)cc(C)cc1OP(=O)(O)O)C(C)(C)C(F)(F)F [Example 58] | 370 nM | 1573.2 nM | 12.1 h | 4460 µg/mL (≈ 2800 µM) | 7.23 h |  |  |  |  |  |  |  |  |  | 
3 | COC(=O)N[C@H](C(=O)N[C@@H](Cc1ccc(C#Cc2cnc(N3CC4CCC(C3)N4C3COC3)nc2)cc1)[C@H](CN(Cc1c(F)cc(-c2ccn(C(F)F)n2)cc1F)NC(=O)[C@@H](NC(=O)OC)C(C)(C)C(F)(F)F)OC(=O)CC(C)(C)c1c(CC(=O)Nc2cc(C(=O)O)cc(C(=O)O)c2)cccc1OP(=O)(O)O)C(C)(C)C(F)(F)F [Example 19] | 38.9 nM | 1405.7 nM | 3.83 h | 3650 µg/mL (≈ 2230 µM) | 0.3 h | 18.4 % of total | 317.9 nM | 323.6 nM | 22.1% | 1045.1 nM | 94.7% |  |  |  | 
4 | COC(=O)N[C@H](C(=O)N[C@@H](Cc1ccc(C#Cc2cnc(N3CC4CCC(C3)N4C3COC3)nc2)cc1)[C@H](CN(Cc1c(F)cc(-c2ccn(C(F)F)n2)cc1F)NC(=O)[C@@H](NC(=O)OC)C(C)(C)C(F)(F)F)OC(=O)CC(C)(C)c1c(CC(=O)N2CCC[C@H]2C(=O)O)cccc1OP(=O)(O)O)C(C)(C)C(F)(F)F [Example 46] | 190 nM | 1864.7 nM | 7.41 h | 2870 µg/mL (≈ 1830 µM) | 5.08 h |  |  |  |  |  |  |  |  |  | 
5 | COC(=O)N[C@H](C(=O)N[C@@H](Cc1ccc(C#Cc2cnc(N3CC4CCC(C3)N4C3COC3)nc2)cc1)[C@H](CN(Cc1c(F)cc(-c2ccn(C(F)F)n2)cc1F)NC(=O)[C@@H](NC(=O)OC)C(C)(C)C(F)(F)F)OC(=O)CC(C)(C)c1c(CC(=O)N2CC(C(=O)O)C2)cc(C)cc1OP(=O)(O)O)C(C)(C)C(F)(F)F [Example 110] | 138 nM | 1852.3 nM | 8.51 h | 4420 µg/mL (≈ 2820 µM) | 2.81 h |  |  |  |  |  |  |  |  |  | 
6 | COC(=O)N[C@H](C(=O)N[C@@H](Cc1ccc(C#Cc2cnc(N3CC4CCC(C3)N4C3COC3)nc2)cc1)[C@H](CN(Cc1c(F)cc(-c2ccn(C(F)F)n2)cc1F)NC(=O)[C@@H](NC(=O)OC)C(C)(C)C(F)(F)F)OC(=O)CC(C)(C)c1c(CC(=O)N2C[C@H](OC)C[C@H]2C(=O)O)cc(C)cc1OP(=O)(O)O)C(C)(C)C(F)(F)F [Example 59] | 658 nM | 1520.4 nM |  | 3600 µg/mL (≈ 2230 µM) | 6.67 h |  |  |  |  |  |  | 13.2 h |  |  | 
7 | COC(=O)N[C@H](C(=O)N[C@@H](Cc1ccc(C#Cc2cnc(N3CC4CCC(C3)N4C3COC3)nc2)cc1)[C@H](CN(Cc1c(F)cc(-c2ccn(C(F)F)n2)cc1F)NC(=O)[C@@H](NC(=O)OC)C(C)(C)C(F)(F)F)OC(=O)CC(C)(C)c1c(CC(=O)N2C[C@H]3[C@@H]([C@H]2C(=O)O)C3(C)C)cc(C)cc1OP(=O)(O)O)C(C)(C)C(F)(F)F [Example 47] | 593 nM | 1950.3 nM | 6.39 h | 3620 µg/mL (≈ 2230 µM) | 7.34 h |  |  |  |  |  |  |  |  |  | 
8 | COC(=O)N[C@H](C(=O)N[C@@H](Cc1ccc(C#Cc2cnc(N3CC4CCC(C3)N4C3COC3)nc2)cc1)[C@H](CN(Cc1c(F)cc(-c2ccn(C(F)F)n2)cc1F)NC(=O)[C@@H](NC(=O)OC)C(C)(C)C(F)(F)F)OC(=O)CC(C)(C)c1c(CC(=O)Nc2cc(C(=O)O)cc(S(C)(=O)=O)c2)cc(C)cc1OP(=O)(O)O)C(C)(C)C(F)(F)F [Example 109] | 90.5 nM | 1951.1 nM | 4.48 h | < 1000 µg/mL | 2.23 h |  |  |  |  |  |  |  |  |  | 
9 | C=C1C[C@@H](C(=O)O)N(C(=O)Cc2cc(C)cc(OP(=O)(O)O)c2C(C)(C)CC(=O)O[C@@H](CN(Cc2c(F)cc(-c3ccn(C(F)F)n3)cc2F)NC(=O)[C@@H](NC(=O)OC)C(C)(C)C(F)(F)F)[C@H](Cc2ccc(C#Cc3cnc(N4CC5CCC(C4)N5C4COC4)nc3)cc2)NC(=O)[C@@H](NC(=O)OC)C(C)(C)C(F)(F)F)C1 [Example 60] |  | 1457.7 nM | 12 h |  | 5.81 h |  |  |  |  |  |  |  | 218 nM | 3480 µg/mL (≈ 2190 µM) | 
10 | COC(=O)N[C@H](C(=O)N[C@@H](Cc1ccc(C#Cc2cnc(N3CC4CCC(C3)N4C3COC3)nc2)cc1)[C@H](CN(Cc1c(F)cc(-c2ccn(C(F)F)n2)cc1F)NC(=O)[C@@H](NC(=O)OC)C(C)(C)C(F)(F)F)OC(=O)CC(C)(C)c1c(CC(=O)N2CC[C@@H](O)[C@H]2C(=O)O)cc(C)cc1OP(=O)(O)O)C(C)(C)C(F)(F)F [Example 57] | 290 nM | 1612.8 nM | 11 h | 4100 µg/mL (≈ 2560 µM) | 7.19 h |  |  |  |  |  |  |  |  |  | 
11 | COC(=O)N[C@H](C(=O)N[C@@H](Cc1ccc(C#Cc2cnc(N3CC4CCC(C3)N4C3COC3)nc2)cc1)[C@H](CN(Cc1c(F)cc(-c2ccn(C(F)F)n2)cc1F)NC(=O)[C@@H](NC(=O)OC)C(C)(C)C(F)(F)F)OC(=O)CC(C)(C)c1c(CC(=O)NCc2ccc(S(N)(=O)=O)cc2)cc(C)cc1OP(=O)(O)O)C(C)(C)C(F)(F)F [Example 62] | 280 nM | 2213.4 nM |  |  | 13.2 h | 0 % of total | 0 nM | 22.2 nM | 1.8% | 38.3 nM | 3.1% |  |  |  | 
12 | COC(=O)N[C@H](C(=O)N[C@@H](Cc1ccc(C#Cc2cnc(N3CC4CCC(C3)N4C3COC3)nc2)cc1)[C@H](CN(Cc1c(F)cc(-c2ccn(C(F)F)n2)cc1F)NC(=O)[C@@H](NC(=O)OC)C(C)(C)C(F)(F)F)OC(=O)CC(C)(C)c1c(CC(=O)NC(CC(=O)O)CC(=O)O)cc(C)cc1OP(=O)(O)O)C(C)(C)C(F)(F)F [Example 43] | 85.9 nM | 1661.5 nM |  | 1920 µg/mL (≈ 1190 µM) |  |  |  |  |  |  |  |  |  |  | 4.82 h
